From paper PMC9431032, “Boosting Cosmeceutical Peptides: Coupling Imidazolium-Based Ionic Liquids to Pentapeptide-4 Originates New Leads with Antimicrobial and Collagenesis-Inducing Activities” (Microbiology Spectrum, 2022)
≈ marks a conversion by molar mass, not a printed value. Where “and” joins values, the source holds several entries; their conditions need not be identical. Equal entries are not always repeated. Where two headings read alike, the source gives them in different places. Peptide text beside a SMILES is read from it. * marks the point of attachment. X2 = Cn1cc[n+](Cc2cn(CC(=O)*)nn2)c1; Palmitoyl = CCCCCCCCCCCCCCCC(=O)*

Assays:
[1] = tested on: S. aureus ATCC 29213; test: microbe, parasite or virus in culture
Procedure: (§1) The antimicrobial activity of the IL-KTTKS conjugates was assessed in vitro against reference bacterial strains (American Type Culture Collection, ATCC). The minimal inhibitory concentration (MIC) was determined according to the Clinical and Laboratory Standards Institute (CLSI) guidelines ([28]) against Gram-positive (S. aureus, Enterococcus faecalis) and Gram-negative (Escherichia coli, Pseudomonas aeruginosa) bacteria.
(§2) (i) Antibacterial activity in standard conditions. The test conjugates and reference compounds were evaluated for their activity against three reference strains of Gram-negative bacteria, namely, E. coli (ATCC 25922), Pseudomonas aeruginosa (ATCC 27853), and Klebsiella pneumoniae (ATCC 13883), and the four following reference strains of Gram-positive bacteria, Staphylococcus aureus (ATCC 29213), S. Epidermidis (ATCC 14990), E. faecalis (ATCC 29212), and Streptococcus pyogenes (ATCC 19615). […] MBC values were also determined as previously reported ([52]).

[2] = tested on: E. coli ATCC 25922; test: microbe, parasite or virus in culture
Procedure: as §1, §2

[3] = tested on: P. aeruginosa ATCC 27853; test: microbe, parasite or virus in culture
Procedure: as §1, §2

[4] = tested on: E. faecalis ATCC 29212; test: microbe, parasite or virus in culture
Procedure: as §1, §2

[5] = tested on: C. albicans ATCC 90028; test: microbe, parasite or virus in culture; details: Candida albicans, ATCC90028
Procedure: (§3) The MIC values were determined according to the European Committee on Antimicrobial Susceptibility Testing (EUCAST) protocol ([36]) and are shown on Table 4.
(§4) (iii) Antifungal activity.

[6] = tested on: C. glabrata ATCC 90030; test: microbe, parasite or virus in culture; details: Nakaseomyces glabratus, ATCC90030
Procedure: as §3, §4

[7] = tested on: C. parapsilosis ATCC 22019; test: microbe, parasite or virus in culture; details: Lodderomyces parapsilosis, ATCC22019
Procedure: as §3, §4

[8] = tested on: HaCaT cells (human immortalized keratinocytes); test: cells; assay type: cell-based
Procedure: (§5) The cytotoxicity of KTTK(C16Im)S and C16Im-KTTKS conjugates was assessed on human foreskin fibroblasts (HFF-1) and human immortalized keratinocytes (HaCaT). […] In turn, the parent IL [C16 M1Im][Br] and its […] equimolar mixture with PP4, KTTKS:[C16 M1Im][Br]
(§6) (iv) Toxicity to human cells. HaCat and HFF-1 were seeded at 4 × 10^4cell/mL in 96-well plate using in Dulbecco’s Modified Eagle Medium (DMEM; CLS) supplemented with 2% FBS (Biowest) and 1% of antibiotic/antimycotic solution (100 units/mL of penicillin, 10 mg/mL of streptomycin, and 0.25 mg/mL of amphotericin B, Sigma-Aldrich). The plate was incubated at 37°C in a 5% CO2 atmosphere, and the cells allowed to grow until confluence was reached. Then, solutions of the test compounds in DMEM supplemented with 2% FBS, in a concentration range between 6.3 and 100 μM, were added to the wells. After 24 h of incubation at 37°C in a 5% CO2 atmosphere, the cell viability was assessed through the resazurin reduction assay. Briefly, the medium was removed and then 20 μL of the alamarBlue Cell Viability Reagent (Resazurin sodium salt, Sigma-Aldrich) at 0.15 mg/mL in 100 μL of Hank’s Balanced Salt Solution (HBSS; Sigma-Aldrich) were added to each well; the plate was next incubated for 2 h at 37°C in a 5% CO2 atmosphere, after which fluorescence was read at 560/590 nm on a Flex Station 3 multi-mode microplate reader (Molecular Devices) ([53]). The IC50 values were thus determined using the GraphPad Prism 9.0 software, by applying the equation log(inhibitor) versus response with variable slope (four parameters).

[9] = tested on: HFF-1 cells (human foreskin fibroblasts); assay type: cell-based; details: 24 h
Procedure: as §5, §6

[10] = assay type: physicochemical
Procedure: as §1
(vi) Quantitation of final peptides and their IL conjugates. Peptide stock solutions were prepared at approximately 10 mg/mL in distilled water except for C16-KTTKS-OH that was solubilized in DMSO. Accurate quantitation of the peptide solutions were quantitated by microvolume spectrophotometry at 205 nm, using a Thermo Scientific NanoDrop One system and quantitation method 31 that assumes an extinction coefficient ε205 of 31 mL·mg^−1·cm^−1 ([50]). […] To this end, the peptide was hydrolyzed using 6 M aqueous hydrochloric acid containing phenol (10% vol/vol), for 24 h at 110°C. The hydrolysate was next evaporated to dryness and the residue dissolved in HPLC-grade water (500 μL) containing α-aminobutyric acid as internal standard. The mixture thus obtained was then derivatized by the AccQ-Tag protocol from Waters using 6-aminoquinoyl-N-hydroxysuccinimidyl carbamate ([51]), and the resulting solution analyzed by HPLC (WATERS 600) with the UV-detector (WATERS 2487) set at 254 nm.

[11] = tested on: K. pneumonia ATCC 138830; test: microbe, parasite or virus in culture; details: Klebsiella pneumoniae, ATCC138830
Procedure: as §1, §2

[12] = S. aureus ATCC 29213, broth microdilution in cation-adjusted MHB2, CLSI, n = 3
[13] = E. coli ATCC 25922, broth microdilution in cation-adjusted MHB2, CLSI, n = 3
[14] = P. aeruginosa ATCC 27853, broth microdilution in cation-adjusted MHB2, CLSI, n = 3
[15] = E. faecalis ATCC 29212, broth microdilution in cation-adjusted MHB2, CLSI, n = 3
[16] = Staphylococcus aureus, ATCC29213
[17] = Enterococcus faecalis, ATCC29212

For `CCCCCCCCCCCCCCn1cc[n+](Cc2cn(CCCC[C@H](NC(=O)[C@@H](NC(=O)[C@@H](NC(=O)[C@@H](N)CCCCN)[C@@H](C)O)[C@@H](C)O)C(=O)N[C@@H](CO)C(N)=O)nn2)c1` [KTTK(C14Im)S], which MIC [1, 12] is on record?
Its MIC is 29.5 μM and 26.3 μg/mL.

What about the MIC [2, 13] of the same compound?
Its MIC is 29.5 μM and 26.3 μg/mL.

And the MIC [3, 14]?
The MIC was 58.9 μM and 52.6 μg/mL.

What about the MIC [4, 15] of the same compound?
Its MIC is 58.9 μM and 52.6 μg/mL.

Which MIC [1, 12] does the source give for `C[C@@H](O)[C@H](NC(=O)[C@@H](NC(=O)[C@@H](N)CCCCn1cc(C[n+]2ccn(C)c2)nn1)[C@@H](C)O)C(=O)N[C@@H](CCCCn1cc(C[n+]2ccn(C)c2)nn1)C(=O)N[C@@H](CO)C(N)=O` [K(MeIm)TTK(MeIm)S] here?
The MIC was > 1245.5 μM and > 1067.4 μg/mL.

What about the MIC [2, 13] of the same compound?
Its MIC is > 1245.5 μM and > 1067.4 μg/mL.

And the MIC [3, 14]?
The MIC was > 1245.5 μM and > 1067.4 μg/mL.

What about the MIC [4, 15] of the same compound?
The MIC was > 1245.5 μM and > 1067.4 μg/mL.

Which MIC [1, 12] does the source give for `C[C@@H](O)[C@H](NC(=O)[C@@H](NC(=O)[C@@H](N)CCCCN)[C@@H](C)O)C(=O)N[C@@H](CCCCn1cc(C[n+]2ccn(C)c2)nn1)C(=O)N[C@@H](CO)C(N)=O` [KTTK(MeIm)S] here?
The MIC was > 954.2 μM and > 677.3 μg/mL.

What about the MIC [2, 13] of the same compound?
Its MIC is > 954.2 μM and > 677.3 μg/mL.

What about the MIC [3, 14] of the same compound?
The MIC was > 954.2 μM and > 677.3 μg/mL.

What about the MIC [4, 15] of the same compound?
Its MIC is > 954.2 μM and > 677.3 μg/mL.

Which MIC [5] does the source give for `OC(Cn1cncn1)(Cn1cncn1)c1ccc(F)cc1F` [Fluconazole, reference compound] here?
Its MIC is 1.6 µM (≈ 0.49 µg/mL).

And the MIC [6]?
Its MIC is 26 µM (≈ 7.96 µg/mL).

And the MIC [7]?
Its MIC is 6.5 µM (≈ 1.99 µg/mL).

Which IC50 ([8]; 24 h) does the source give for `CCCCCCCCCCCCCCCC(=O)N[C@@H](CCCCN)C(=O)N[C@H](C(=O)N[C@H](C(=O)N[C@@H](CCCCN)C(=O)N[C@@H](CO)C(=O)O)[C@@H](C)O)[C@@H](C)O` [Peptide C16-KTTKS-OH] (Palmitoyl-KTTKS-OH) here?
Its IC50 is greater than 100 µM.

What about the IC50 [9] of the same compound?
Its IC50 is 79.7 ± 2.82 µM.

And the “Behaviour when diluted in cation-adjusted Mueller-Hinton broth (MHB2)” value [10]?
Its value is “precipitated”.

What about the Solubility in water [10] of the same compound?
The Solubility in water was “poor solubility in water”.

And the “Solvent in which the peptide was soluble” value [10]?
The value was “dimethyl sulfoxide (DMSO)”.

What does the source list for “C16-KTTKS-NH2 [C-terminal carboxamide analogue of Matrixyl]”?
Behaviour when diluted in cation-adjusted Mueller-Hinton broth (MHB2) [10]: precipitated; Solvent in which the peptide was soluble [10]: water

For `C[C@@H](O)[C@H](NC(=O)[C@@H](NC(=O)[C@@H](N)CCCCn1cc(C[n+]2ccn(C)c2)nn1)[C@@H](C)O)C(=O)N[C@@H](CCCCN)C(=O)N[C@@H](CO)C(N)=O` [K(MeIm)TTKS], which MIC [1, 12] is on record?
The MIC was > 1030.1 μM and > 731.2 μg/mL.

And the MIC [2, 13]?
The MIC was > 1030.1 μM and > 731.2 μg/mL.

What about the MIC [3, 14] of the same compound?
The MIC was > 1030.1 μM and > 731.2 μg/mL.

What about the MIC [4, 15] of the same compound?
The MIC was > 1030.1 μM and > 731.2 μg/mL.

Which MIC [1, 12] does the source give for `C[C@@H](O)[C@H](NC(=O)[C@H](CCCCN)NC(=O)Cn1cc(C[n+]2ccn(C)c2)nn1)C(=O)N[C@H](C(=O)N[C@@H](CCCCN)C(=O)N[C@@H](CO)C(N)=O)[C@@H](C)O` [MeIm-KTTKS] (X2-KTTKS-NH2) here?
The MIC was > 825.9 μM and > 633.4 μg/mL.

And the MIC [2, 13]?
Its MIC is > 825.9 μM and > 633.4 μg/mL.

What about the MIC [3, 14] of the same compound?
Its MIC is > 825.9 μM and > 633.4 μg/mL.

And the MIC [4, 15]?
Its MIC is > 825.9 μM and > 633.4 μg/mL.

For `CCCCCCCCCCCCCCCCn1cc[n+](C)c1` [[C16 M1Im][Br], 1-hexadecyl-3-methylimidazolium bromide, reference compound], which MBC [1, 16] is on record?
Its MBC is 30 µM.

And the MIC [1, 16]?
The MIC was 0.94 µM.

And the MIC ([2]; Escherichia coli, ATCC25922)?
Its MIC is 60 µM.

And the MIC ([3]; Pseudomonas aeruginosa, ATCC27853)?
Its MIC is greater than 240 µM.

What about the MIC [11] of the same compound?
The MIC was 60 µM.

And the MBC [4, 17]?
Its MBC is 15 µM.

And the MIC [4, 17]?
The MIC was 0.94 µM.

What about the MIC [5] of the same compound?
The MIC was 0.93 µM.

And the MIC [6]?
Its MIC is 0.93 µM.

And the MIC [7]?
The MIC was 0.93 µM.

What about the IC50 ([8]; Homo sapiens, HaCaT, 24 h incubation, 6.3-100 μM, resazurin, mean ± SEM of 2 independent experiments (n = 8), read-out: IC50 ± SEM) of the same compound?
The IC50 was 6.27 ± 1.02 µM.
